Measurements as given in US20250346600A1, “TRICYCLIC DERIVATIVES AND RELATED USES” (MOMA Therapeutics, Inc., priority 2023, published 2025).
Read-outs that look alike come from different tables or passages of the source.

Legend:
HT29 cells = experiment: HT29 (MSS) 7 day viability, CellTiter Glo; assay type: cell-based; conditions: 7 days, read-out: HT29 (MSS) Viability 7 Day CTGAbs AC50
Procedure: (§1) Compounds were dissolved in DMSO to a concentration of 10 mM. Compounds were then serially diluted in 10 3-fold steps in DMSO using an EVO (Tecan). Plates were then spun down for 1 minute at 1,000 RPM at room temperature.
(§2) The colon carcinoma lines HCT116 (RRID: CVCL_0291) and HT29 (RRID: CVCL_0320) were obtained from ATCC. […] All cells were maintained at 37° C. with 5% CO2 incubator.
(§3) After harvesting, cells were spun down for 5 minutes at 1200 RPM. Cells were resuspended in 10 mL of growth media and counted using Countess (Thermo Fisher). Cell concentrations were adjusted to 50 cells/well for HCT116 and 500 cells/well for HT29. 50 μL of diluted cells were added to compound treated 384 well plates using a 12 channel, 300 uL electronic handheld pipette (Integra). Cell treated plates were placed in 37 C with 5% CO2 incubator for 7 days.
(§4) Afterwards, cells were removed from incubator and equilibrated to room temperature for 15 minutes. 35 uL of CellTiter Glo (Promega #G7573) reagent were added to each well using a 12 channel, 300 uL electronic handheld pipette (Integra). Plates were incubated for 20 minutes at room temperature. Luminescence quantification was performed using Envision (PerkinElmer).
(§5) For data analysis, the assay background signal was determined in wells containing medium, but no cells. Potencies were calculated by linear least squares fit to the four-parameter logistic IC50 equation. The reported IC50 values are the geometrical mean of at least 2 independent replicates.

[1] = target: Full length WRN protein (aa 2-1432) (Homo sapiens (Human), UniProt Q14191); experiment: WRN ATPase ADP-Glo biochemical assay, Assay Format B (100 μM ATP); conditions: 0.25 nM WRN, 100 nM C6.18 ssDNA, 60 min preincubation, read-out: ATPase ADPGlo AC50 (uM)- Assay Format B
HCT116 cells = experiment: HCT116 (MSI) 7 day viability, CellTiter Glo; assay type: cell-based; conditions: 7 days, read-out: HCT116 (MSI) Viability 7 Day Abs AC50
Procedure: as §1, §2, §3, §4, §5

Sequence of Full length WRN protein (aa 2-1432) (Q14191 2-1432): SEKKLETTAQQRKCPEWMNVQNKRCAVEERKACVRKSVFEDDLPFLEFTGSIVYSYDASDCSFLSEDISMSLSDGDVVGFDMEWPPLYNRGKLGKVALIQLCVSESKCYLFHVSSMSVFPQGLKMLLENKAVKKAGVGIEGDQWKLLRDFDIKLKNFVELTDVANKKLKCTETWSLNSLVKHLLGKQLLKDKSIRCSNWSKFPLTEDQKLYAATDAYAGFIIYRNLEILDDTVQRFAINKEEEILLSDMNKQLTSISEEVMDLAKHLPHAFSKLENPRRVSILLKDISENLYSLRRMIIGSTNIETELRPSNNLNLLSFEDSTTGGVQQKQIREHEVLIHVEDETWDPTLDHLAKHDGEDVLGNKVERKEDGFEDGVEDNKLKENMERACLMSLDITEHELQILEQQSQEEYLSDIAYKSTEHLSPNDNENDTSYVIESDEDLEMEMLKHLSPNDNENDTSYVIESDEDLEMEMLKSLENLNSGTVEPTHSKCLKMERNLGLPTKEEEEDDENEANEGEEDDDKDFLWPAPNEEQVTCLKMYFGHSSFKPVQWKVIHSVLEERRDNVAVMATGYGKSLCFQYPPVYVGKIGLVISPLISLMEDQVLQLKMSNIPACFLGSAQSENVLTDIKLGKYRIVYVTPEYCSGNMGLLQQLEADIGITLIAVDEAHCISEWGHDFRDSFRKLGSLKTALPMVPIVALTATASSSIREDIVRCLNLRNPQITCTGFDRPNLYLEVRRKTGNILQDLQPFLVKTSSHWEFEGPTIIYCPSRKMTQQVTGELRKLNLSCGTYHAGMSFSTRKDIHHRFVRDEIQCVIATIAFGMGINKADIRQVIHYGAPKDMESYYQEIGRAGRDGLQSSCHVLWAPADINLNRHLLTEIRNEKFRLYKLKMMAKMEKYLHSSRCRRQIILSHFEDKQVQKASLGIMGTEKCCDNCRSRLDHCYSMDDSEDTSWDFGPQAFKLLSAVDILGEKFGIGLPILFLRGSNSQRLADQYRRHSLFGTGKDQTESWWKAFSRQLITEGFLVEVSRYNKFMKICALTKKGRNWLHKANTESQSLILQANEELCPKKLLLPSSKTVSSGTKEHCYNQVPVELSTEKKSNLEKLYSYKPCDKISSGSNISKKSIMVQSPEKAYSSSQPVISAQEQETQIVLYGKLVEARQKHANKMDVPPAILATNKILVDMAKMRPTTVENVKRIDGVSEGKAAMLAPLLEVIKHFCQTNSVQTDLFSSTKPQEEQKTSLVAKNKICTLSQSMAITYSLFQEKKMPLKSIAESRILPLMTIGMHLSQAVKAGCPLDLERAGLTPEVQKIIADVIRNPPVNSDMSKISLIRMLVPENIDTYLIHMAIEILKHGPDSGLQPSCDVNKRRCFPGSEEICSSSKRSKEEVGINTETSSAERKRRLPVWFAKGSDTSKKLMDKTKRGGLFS

AC50 [1] | Compound | AC50 (HT29 cells; Homo sapiens, HT-29, 168 h) | AC50 (HCT116 cells; Homo sapiens, HCT-116, 168 h) | AC50 (HT29 cells) | AC50 (HCT116 cells)
0.0015 to 0.005 µM | C=CC(=O)N1CCc2nc(-c3ccc(C4CCC4)cc3)n3c2C(C1)N(C(=O)c1ccc(Br)c2[nH]c(C(F)F)nc12)CC3 (stereo not shown) [Compound 237, 1-(5-(7-bromo-2-(difluoromethyl)-1H-benzo[d]imidazole-4-carbonyl)-2-(4-cyclobutylphenyl)-4,5,5a,6,8,9-hexahydro-1,2a,5,7-tetraazabenzo[cd]azulen-7(3H)-yl)prop-2-en-1-one] | > 3000 nM | 1 to 100 nM | – | –
0.015 to 0.055 µM | C=CC(=O)N1CCc2nn(-c3ccc(C4CC4)cc3CO)c3c2C(C1)N(C(=O)c1cnc(C(F)(F)F)cc1N)CC3 (stereo not shown) [Compound 225, 1-(5-(4-amino-6-(trifluoromethyl)nicotinoyl)-2-(4-cyclopropyl-2-(hydroxymethyl)phenyl)-2,3,4,5,5a,6,8,9-octahydro-7H-1,2,5,7-tetraazabenzo[cd]azulen-7-yl)prop-2-en-1-one] | > 3000 nM | 100 to 250 nM | – | –
0.005 to 0.015 µM | C=CC(=O)N1CC(OC2CC2)c2nn(-c3ccc(C4CC4)cc3O)c3c2C(C1)N(C(=O)c1cnc(C(F)(F)F)cc1N)CC3 (stereo not shown) [Compound 232, 1-(5-(4-amino-6-(trifluoromethyl)nicotinoyl)-9-cyclopropoxy-2-(4-cyclopropyl-2-hydroxyphenyl)-2,3,4,5,5a,6,8,9-octahydro-7H-1,2,5,7-tetraazabenzo[cd]azulen-7-yl)prop-2-en-1-one] | > 3000 nM | 1 to 100 nM | – | –
0.015 to 0.055 µM | C=CC(=O)N1CC(OCc2cnc3sccn23)c2nn(-c3ccc(C4CC4)cc3)c3c2C(C1)N(C(=O)c1ccc(C(F)(F)F)nc1)CC3 (stereo not shown) [Compound 234, 1-(2-(4-cyclopropylphenyl)-9-(imidazo[2,1-b]thiazol-5-ylmethoxy)-5-(6-(trifluoromethyl)nicotinoyl)-2,3,4,5,5a,6,8,9-octahydro-7H-1,2,5,7-tetraazabenzo[cd]azulen-7-yl)prop-2-en-1-one] | > 3000 nM | 1 to 100 nM | – | –
0.005 to 0.015 µM | C=CC(=O)N1CCc2nn(-c3ccc(C4CC4)c(F)c3O)c3c2C(C1)N(C(=O)c1cnc(C(C)(F)F)c(F)c1N)CC3 (stereo not shown) [Compound 227, 1-(5-(4-amino-6-(1,1-difluoroethyl)-5-fluoronicotinoyl)-2-(4-cyclopropyl-3-fluoro-2-hydroxyphenyl)-2,3,4,5,5a,6,8,9-octahydro-7H-1,2,5,7-tetraazabenzo[cd]azulen-7-yl)prop-2-en-1-one] | < 1000 nM | 1 to 100 nM | – | –
0.005 to 0.015 µM | C=CC(=O)N1CCc2nn(-c3cc(F)c(C4CC4)cc3O)c3c2C(C1)N(C(=O)c1cnc(C(F)(F)F)cc1N)CC3 (stereo not shown) [Compound 224, 1-(5-(4-amino-6-(trifluoromethyl)nicotinoyl)-2-(4-cyclopropyl-5-fluoro-2-hydroxyphenyl)-2,3,4,5,5a,6,8,9-octahydro-7H-1,2,5,7-tetraazabenzo[cd]azulen-7-yl)prop-2-en-1-one] | > 3000 nM | 1 to 100 nM | – | –
0.0015 to 0.005 µM | C=CC(=O)N1CCc2nn(-c3ccc(C4CC4)cc3)c3c2C(C1)N(C(=O)c1c(N)nc(C(F)(F)F)c(F)c1N)CC3 (stereo not shown) [Compound 220, 1-(2-(4-cyclopropylphenyl)-5-(2,4-diamino-5-fluoro-6-(trifluoromethyl)nicotinoyl)-2,3,4,5,5a,6,8,9-octahydro-7H-1,2,5,7-tetraazabenzo[cd]azulen-7-yl)prop-2-en-1-one] | > 3000 nM | 1 to 100 nM | – | –

Continued, compound first:

Compound | AC50 [1] | AC50 (HT29 cells; Homo sapiens, HT-29, 168 h) | AC50 (HCT116 cells; Homo sapiens, HCT-116, 168 h) | AC50 (HT29 cells) | AC50 (HCT116 cells)
C=CC(=O)N1CCc2nn(-c3ccc(C4CCC4)cc3O)c3c2C(C1)N(C(=O)c1cnc(Br)c(OC(F)F)c1)CC3 (stereo not shown) [Compound 94, 1-(5-(6-bromo-5-(difluoromethoxy)nicotinoyl)-2-(4-cyclobutyl-2-hydroxyphenyl)-2,3,4,5,5a,6,8,9-octahydro-7H-1,2,5,7-tetraazabenzo[cd]azulen-7-yl)prop-2-en-1-one] | 0.015 to 0.055 µM | > 3000 nM | 1 to 100 nM | – | –
C=CC(=O)N1CCc2nn(-c3ccc(C4CC4)c(F)c3O)c3c2C(C1)N(C(=O)c1cnc(Br)cc1N)CC3 (stereo not shown) [Compound 215, 1-(5-(4-amino-6-bromonicotinoyl)-2-(4-cyclopropyl-3-fluoro-2-hydroxyphenyl)-2,3,4,5,5a,6,8,9-octahydro-7H-1,2,5,7-tetraazabenzo[cd]azulen-7-yl)prop-2-en-1-one] | 0.0015 to 0.005 µM | > 3000 nM | 1 to 100 nM | – | –
C=CC(=O)N1CCc2nn(-c3ccc(C4CC4)cc3O)c3c2C(C1)N(C(=O)c1cc(C#N)c(C(F)(F)F)cc1N)CC3 (stereo not shown) [Compound 207, 5-(7-acryloyl-2-(4-cyclopropyl-2-hydroxyphenyl)-3,4,5,5a,6,7,8,9-octahydro-2H-1,2,5,7-tetraazabenzo[cd]azulene-5-carbonyl)-4-amino-2-(trifluoromethyl) benzonitrile] | 0.005 to 0.015 µM | > 3000 nM | 1 to 100 nM | – | –
C=CC(=O)N1CCOc2nn(-c3ccc(C(C)C)c(O)n3)c3c2C(C1)N(C(=O)c1ccc(Br)c2[nH]cnc12)CC3 (stereo not shown) [Compound 105, 1-(5-(7-bromo-1H-benzo[d]imidazole-4-carbonyl)-2-(6-hydroxy-5-isopropylpyridin-2-yl)-2,3,4,5,5a,6,8,9-octahydro-7H-10-oxa-1,2,5,7-tetraazacycloocta[cd]inden-7-yl)prop-2-en-1-one] | – | > 3000 nM | > 1000 nM | – | –
C=CC(=O)N1CCc2nn(-c3ccc(C4CC4)cc3O)c3c2C(C1)N(C(=O)c1cnc(C(F)(F)F)c(O)c1)CC3 (stereo not shown) [Compound 175, 1-(2-(4-cyclopropyl-2-hydroxyphenyl)-5-(5-hydroxy-6-(trifluoromethyl)nicotinoyl)-2,3,4,5,5a,6,8,9-octahydro-7H-1,2,5,7-tetraazabenzo[cd]azulen-7-yl)prop-2-en-1-one] | 0.0015 to 0.005 µM | > 3000 nM | 100 to 250 nM | – | –
C=CC(=O)N1CCc2nn(-c3ccc(C4CCC4)cc3O)c3c2C(C1)N(C(=O)c1cnc(OC(F)F)cc1N)CC3 (stereo not shown) [Compound 164, 1-(5-(4-amino-6-(difluoromethoxy)nicotinoyl)-2-(4-cyclobutyl-2-hydroxyphenyl)-2,3,4,5,5a,6,8,9-octahydro-7H-1,2,5,7-tetraazabenzo[cd]azulen-7-yl)prop-2-en-1-one] | 0.0015 to 0.005 µM | > 3000 nM | 1 to 100 nM | – | –
C=CC(=O)N1CCc2nn(-c3ccc(C(C)C)cc3O)c3c2C(C1)N(C(=O)c1cnc(C(F)(F)F)c2[nH]ncc12)CC3 (stereo not shown) [Compound 176, 1-(2-(2-hydroxy-4-isopropylphenyl)-5-(7-(trifluoromethyl)-1H-pyrazolo[3,4-c]pyridine-4-carbonyl)-2,3,4,5,5a,6,8,9-octahydro-7H-1,2,5,7-tetraazabenzo[cd]azulen-7-yl)prop-2-en-1-one] | 0.0015 to 0.005 µM | > 3000 nM | 1 to 100 nM | – | –
C=CC(=O)N1CCc2nn(-c3ccc(C4CCC4)cc3O)c3c2C(C1)N(C(=O)c1cnc(Cl)c(O)c1)CC3 (stereo not shown) [Compound 140, 1-(5-(6-chloro-5-hydroxynicotinoyl)-2-(4-cyclobutyl-2-hydroxyphenyl)-2,3,4,5,5a,6,8,9-octahydro-7H-1,2,5,7-tetraazabenzo[cd]azulen-7-yl)prop-2-en-1-one] | 0.005 to 0.015 µM | > 3000 nM | 1 to 100 nM | – | –
1-(5-(7-bromo-1H- benzo[d]imidazole-4- carbonyl)-2-(4- cyclobutylphenyl)- 2,3,4,5,5a,6-hexahydro- 1,2,5,7- tetraazaspiro[benzo[cd] azulene-9,1′- cyclopropan]-1(9a),2a- dien-7(8H)-yl)prop-2-en- 1-one [Compound 169] | – | – | – | > 3000 nM | 1 to 100 nM
